Measurements from ChEMBL document CHEMBL1201862, “PubChem BioAssay data set” (2004).
Several values for one entry are separate records, joined by “and”; a condition that tells them apart may be missing. Equal values may be shown once. Where a name gives a salt, the structure may show the parent alone. Activity calls are given as the source filed them.

Columns and labels:
[1] = target: T1, Tyrosine-protein phosphatase non-receptor type 7 (Homo sapiens, UniProt P35236); assay: redox-dependent HePTP inhibition, mechanism study, biochemical, fluorescence (AID 2068); format: functional
T1 sequence (P35236 whole entry): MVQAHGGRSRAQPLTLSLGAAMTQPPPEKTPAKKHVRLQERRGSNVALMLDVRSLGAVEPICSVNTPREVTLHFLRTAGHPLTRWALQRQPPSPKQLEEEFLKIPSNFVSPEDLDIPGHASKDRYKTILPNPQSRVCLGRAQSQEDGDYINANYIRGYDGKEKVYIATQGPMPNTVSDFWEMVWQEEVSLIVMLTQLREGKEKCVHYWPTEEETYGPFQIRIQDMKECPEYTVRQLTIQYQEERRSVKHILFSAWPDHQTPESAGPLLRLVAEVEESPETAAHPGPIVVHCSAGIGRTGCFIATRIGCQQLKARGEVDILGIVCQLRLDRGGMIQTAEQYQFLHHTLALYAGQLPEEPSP

[2] = target: T2, Voltage-gated N-type calcium channel alpha-1B subunit/Amyloid beta A4 precursor protein-binding family A member 1 (Homo sapiens, UniProt Q00975+Q02410); format: protein assay
[3] = target: Glutathione-S-transferase (Schistosoma japonicum, UniProt Q26513); assay: biotin-GST/anti-GST TR-FRET signal inhibitors, dose response, artefact control for Vif-APOBEC3G degradation inhibitor project, biochemical (AID 1117362); format: functional
[4] = target: T2, Voltage-gated N-type calcium channel alpha-1B subunit/Amyloid beta A4 precursor protein-binding family A member 1; format: protein assay; remark: listed apart in the source
[5] = target: Eukaryotic translation initiation factor 4E (Mus musculus, UniProt P63073); assay: eIF4E–eIF4G protein interaction inhibitors, dose response, biochemical, TR-FRET (AID 855); format: functional;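 also: potency for disrupting eIF4E binding to eIF4GI seen as loss of FRET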
[6] = target: T3, Short transient receptor potential channel 4 (Mus musculus, UniProt Q9QUQ5); assay: TRPC4 positive allosteric modulators, dose response, cell-based, HEK293 TRPC4/mu-opioid, Fluo-4 calcium, EC20 DAMGO (AID 434941); format: functional
T3 sequence (Q9QUQ5 whole entry): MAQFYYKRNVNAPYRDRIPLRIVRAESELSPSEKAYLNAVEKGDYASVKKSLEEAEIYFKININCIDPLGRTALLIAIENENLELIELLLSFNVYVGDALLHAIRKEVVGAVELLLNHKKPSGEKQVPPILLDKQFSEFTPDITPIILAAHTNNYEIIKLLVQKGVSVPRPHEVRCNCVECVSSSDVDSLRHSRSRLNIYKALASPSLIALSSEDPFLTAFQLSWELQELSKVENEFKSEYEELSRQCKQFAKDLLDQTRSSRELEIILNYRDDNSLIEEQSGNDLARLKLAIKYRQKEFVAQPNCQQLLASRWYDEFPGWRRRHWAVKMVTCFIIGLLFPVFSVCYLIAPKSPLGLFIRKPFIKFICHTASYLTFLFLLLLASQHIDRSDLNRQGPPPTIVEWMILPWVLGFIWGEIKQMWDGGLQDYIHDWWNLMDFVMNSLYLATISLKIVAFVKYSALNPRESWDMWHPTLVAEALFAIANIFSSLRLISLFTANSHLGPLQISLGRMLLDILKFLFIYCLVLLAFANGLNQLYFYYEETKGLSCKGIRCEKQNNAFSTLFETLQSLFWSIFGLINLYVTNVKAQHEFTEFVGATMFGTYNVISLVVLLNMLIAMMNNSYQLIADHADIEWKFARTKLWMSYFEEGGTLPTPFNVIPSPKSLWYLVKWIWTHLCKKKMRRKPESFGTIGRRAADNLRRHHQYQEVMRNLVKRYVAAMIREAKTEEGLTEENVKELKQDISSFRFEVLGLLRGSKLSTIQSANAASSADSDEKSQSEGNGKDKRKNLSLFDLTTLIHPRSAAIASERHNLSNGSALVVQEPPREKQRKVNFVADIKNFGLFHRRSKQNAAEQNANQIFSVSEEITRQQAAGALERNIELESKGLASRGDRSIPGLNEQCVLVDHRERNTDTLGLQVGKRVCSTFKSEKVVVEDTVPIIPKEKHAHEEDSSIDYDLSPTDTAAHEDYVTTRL

[7] = Luminescence Cell-Based/Microorganism Confirmation at Dose of Inhibitors of Trypanosoma cruzi Infection. [Related pubchem assays: 1885, 1968 ]; format: functional
[8] = Luminescence Cell-Based Secondary HTS screen to identify cytotoxic compounds of NIH3T3 cells. [Related pubchem assays: 1885, 1968 ]; format: functional
[9] = cytotoxicity in NIH/3T3 mouse fibroblasts, dose response, cytotoxicity control, cell-based, mouse embryonic fibroblasts, dry powder, set 2 (AID 493247); format: functional; settings: Fibroblast
Trypanosoma cruzi = assay: growth inhibition of intracellular Trypanosoma cruzi, dose response, cell-based, plate reader, dry powder, set 3 (AID 493197); format: functional
Hexokinase = Hexokinase (Trypanosoma brucei, UniProt Q38C41); assay: Confirmation assay for inhibitors of Trypanosoma brucei hexokinase 1-Analogue-first series. [Related pubchem assays (depositor defined):AID1430, AID1632, AID2516, AID2560, AID2579, AID2600, AID449725, AID492951]; format: functional
Phosphomannomutase 2 = target: T4, Phosphomannomutase 2 (Homo sapiens, UniProt O15305); assay: Counter screen SAR assay for PMM2 inhibitors via a fluorescence intensity assay. [Related pubchem assays (depositor defined):AID1545, AID1574]
T4 sequence (O15305 whole entry): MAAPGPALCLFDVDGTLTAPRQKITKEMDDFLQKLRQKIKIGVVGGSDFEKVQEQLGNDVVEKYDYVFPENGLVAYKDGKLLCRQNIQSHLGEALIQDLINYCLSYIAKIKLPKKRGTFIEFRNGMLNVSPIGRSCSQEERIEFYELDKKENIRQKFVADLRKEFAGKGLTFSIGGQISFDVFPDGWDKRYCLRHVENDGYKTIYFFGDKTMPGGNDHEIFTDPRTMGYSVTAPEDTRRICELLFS

[10] = target: T5, Mannose-6-phosphate isomerase (Homo sapiens, UniProt P34949); assay: PMI enzyme inhibitors, confirmation, biochemical, fluorescence intensity (AID 1535)
T5 sequence (P34949 whole entry): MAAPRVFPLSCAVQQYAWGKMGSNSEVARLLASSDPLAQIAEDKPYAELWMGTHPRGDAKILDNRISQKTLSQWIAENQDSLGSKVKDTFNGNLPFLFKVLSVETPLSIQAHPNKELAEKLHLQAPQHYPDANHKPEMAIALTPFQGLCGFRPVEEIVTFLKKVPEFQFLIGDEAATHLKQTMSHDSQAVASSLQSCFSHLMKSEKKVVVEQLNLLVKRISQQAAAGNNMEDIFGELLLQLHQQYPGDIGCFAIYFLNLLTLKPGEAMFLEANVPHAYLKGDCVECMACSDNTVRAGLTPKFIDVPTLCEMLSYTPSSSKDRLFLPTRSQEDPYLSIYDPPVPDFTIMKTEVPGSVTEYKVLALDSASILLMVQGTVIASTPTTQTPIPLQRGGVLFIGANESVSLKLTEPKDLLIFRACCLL

[11] = target: T6, Kappa-type opioid receptor (Homo sapiens, UniProt P41145); assay: SAR analysis of Antagonists of the Kappa Opioid Receptor (KOR) using an Image-Based Assay - Set 3. [Related pubchem assays (depositor defined):AID1777, AID1785]; format: functional
Mu-type opioid receptor = Mu-type opioid receptor (Homo sapiens, UniProt P35372); assay: SAR Analysis of Antagonists of the MOR Receptor using an Image-Based Assay - Set 3. [Related pubchem assays (depositor defined):AID1777, AID1785, AID1786, AID1966, AID2133, AID2136, AID2284, AID2285, AID2420]; format: functional
[12] = target: Delta-type opioid receptor (Homo sapiens, UniProt P41143); assay: SAR Analysis of Antagonists of the DOR Receptor using an Image-Based Assay - Set 3. [Related pubchem assays (depositor defined):AID1777, AID1785]; format: functional;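 also: U2OS cells expressing DOR1 and beta-arrestin GFP stimulated with 100 nM SNC80; imaging of GFP-tagged beta-arrestin moving into spots after receptor activation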
[13] = target: T6, Kappa-type opioid receptor; assay: SAR analysis of small molecule antagonists of the kappa opioid receptor via a luminescent beta-arrestin assay - Set 3. [Related pubchem assays (depositor defined):AID1777, AID1778, AID1785, AID1786, AID1966, AID2133, AID2136, AID2285, AID2495]; format: functional
[14] = target: T7, Intestinal-type alkaline phosphatase (Homo sapiens, UniProt P09923); assay: human IAP activators, dose response, biochemical, luminescent, uHTS hits, set 2 (AID 488817); format: functional;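 also: potency of activators that raise enzyme activity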
[15] = C. albicans growth with fluconazole, confirmation, fluorescence, retest (AID 2467); format: functional, cell-based
SUMO-activating enzyme [16] = target: T8, SUMO-activating enzyme (Homo sapiens, UniProt Q9UBT2); assay: inhibitors of in vitro SUMOylation cascade, primary screen, biochemical, HTRF, uHTS (AID 2006); format: protein-complex assay
[17] = target: Intestinal-type alkaline phosphatase (Mus musculus, UniProt P24822); assay: PubChem AID 488875; format: functional
[18] = target: T7, Intestinal-type alkaline phosphatase; assay: human intestinal alkaline phosphatase activators, dose response, biochemical, luminescence, uHTS hits (AID 463120); format: functional
SUMO-activating enzyme [19] = target: T8, SUMO-activating enzyme; assay: SUMOylation inhibitor hit validation, confirmation, SUMOylation inhibitor project, biochemical, AlphaScreen (AID 2018); format: functional
[20] = target: T9, Alkaline phosphatase, tissue-nonspecific isozyme (Homo sapiens, UniProt P05186); assay: TNAP enzyme activators, dose response, selectivity assay for human IAP activator project, biochemical, TNAP isozyme, human IAP uHTS hits (AID 488886); format: functional;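 also: potency of compounds raising TNAP activity as a selectivity check on IAP activators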
T9 sequence (P05186 whole entry): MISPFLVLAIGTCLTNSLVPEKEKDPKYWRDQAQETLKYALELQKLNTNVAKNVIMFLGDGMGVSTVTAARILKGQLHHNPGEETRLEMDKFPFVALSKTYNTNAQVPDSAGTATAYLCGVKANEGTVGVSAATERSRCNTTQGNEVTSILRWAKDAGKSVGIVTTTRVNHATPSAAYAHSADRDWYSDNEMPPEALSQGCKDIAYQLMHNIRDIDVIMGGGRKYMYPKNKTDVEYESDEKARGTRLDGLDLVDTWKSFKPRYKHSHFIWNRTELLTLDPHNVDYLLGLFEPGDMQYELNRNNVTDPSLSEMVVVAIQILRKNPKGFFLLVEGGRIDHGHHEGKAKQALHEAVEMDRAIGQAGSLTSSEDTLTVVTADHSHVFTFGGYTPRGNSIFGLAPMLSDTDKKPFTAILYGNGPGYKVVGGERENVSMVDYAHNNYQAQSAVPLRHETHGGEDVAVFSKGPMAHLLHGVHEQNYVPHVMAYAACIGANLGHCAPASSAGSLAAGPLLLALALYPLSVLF

[21] = NIH-3T3 fibroblast cytotoxicity, dose response, cytotoxicity control, cell-based, fluorescence, Alamar Blue, secondary assay (AID 2327); format: functional;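 also: NIH-3T3 mouse fibroblasts cultured with fluconazole at 8 µg/mL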
[22] = target: G-protein coupled receptor 55 (Homo sapiens, UniProt Q9Y2T6); assay: GPR55 antagonists blocking LPI-driven arrestin recruitment, primary screen, imaging, U2OS, beta-arrestin-GFP, LPI agonist (AID 2013); format: functional;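 also: antagonist potency measured as reduced agonist-driven arrestin aggregation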

T6 sequence (P41145 whole entry): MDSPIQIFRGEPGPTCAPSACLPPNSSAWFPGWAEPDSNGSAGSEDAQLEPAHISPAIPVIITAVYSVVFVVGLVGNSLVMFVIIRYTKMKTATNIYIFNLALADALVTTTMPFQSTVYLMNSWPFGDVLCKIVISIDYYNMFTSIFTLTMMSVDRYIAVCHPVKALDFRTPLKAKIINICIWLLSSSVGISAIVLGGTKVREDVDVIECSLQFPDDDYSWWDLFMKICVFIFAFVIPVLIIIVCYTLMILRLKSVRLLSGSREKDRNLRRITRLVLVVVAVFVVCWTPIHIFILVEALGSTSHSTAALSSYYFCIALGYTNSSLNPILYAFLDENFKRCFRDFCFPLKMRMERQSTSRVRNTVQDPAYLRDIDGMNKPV
T8 sequence (Q9UBE0 whole entry): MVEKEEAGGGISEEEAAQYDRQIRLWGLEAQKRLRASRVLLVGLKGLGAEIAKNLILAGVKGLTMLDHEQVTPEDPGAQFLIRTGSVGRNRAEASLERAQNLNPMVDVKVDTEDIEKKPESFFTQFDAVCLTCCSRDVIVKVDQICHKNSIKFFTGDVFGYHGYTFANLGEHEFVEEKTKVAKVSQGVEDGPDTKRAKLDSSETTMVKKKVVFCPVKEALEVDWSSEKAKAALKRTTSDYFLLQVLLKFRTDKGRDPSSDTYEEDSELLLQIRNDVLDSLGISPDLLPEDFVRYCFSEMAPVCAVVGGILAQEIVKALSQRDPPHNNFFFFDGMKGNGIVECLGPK
T8 sequence (Q9UBT2 whole entry): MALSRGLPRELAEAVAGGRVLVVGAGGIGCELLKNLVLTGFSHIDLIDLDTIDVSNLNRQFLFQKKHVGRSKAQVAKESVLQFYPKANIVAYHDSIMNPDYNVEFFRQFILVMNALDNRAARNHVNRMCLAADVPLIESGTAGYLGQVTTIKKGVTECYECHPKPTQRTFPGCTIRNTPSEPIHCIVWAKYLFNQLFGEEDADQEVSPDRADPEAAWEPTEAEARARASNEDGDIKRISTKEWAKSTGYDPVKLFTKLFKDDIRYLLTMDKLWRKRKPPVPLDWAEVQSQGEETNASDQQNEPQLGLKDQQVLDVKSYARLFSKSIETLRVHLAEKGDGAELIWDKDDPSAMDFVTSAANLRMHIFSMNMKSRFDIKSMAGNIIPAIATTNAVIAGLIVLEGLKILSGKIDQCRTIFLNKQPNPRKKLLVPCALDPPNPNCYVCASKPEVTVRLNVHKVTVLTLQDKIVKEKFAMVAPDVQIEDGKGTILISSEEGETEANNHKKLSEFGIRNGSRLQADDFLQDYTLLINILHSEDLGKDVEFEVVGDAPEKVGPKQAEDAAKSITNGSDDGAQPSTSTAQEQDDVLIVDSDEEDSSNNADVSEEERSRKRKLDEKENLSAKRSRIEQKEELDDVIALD
T7 sequence (P09923 whole entry): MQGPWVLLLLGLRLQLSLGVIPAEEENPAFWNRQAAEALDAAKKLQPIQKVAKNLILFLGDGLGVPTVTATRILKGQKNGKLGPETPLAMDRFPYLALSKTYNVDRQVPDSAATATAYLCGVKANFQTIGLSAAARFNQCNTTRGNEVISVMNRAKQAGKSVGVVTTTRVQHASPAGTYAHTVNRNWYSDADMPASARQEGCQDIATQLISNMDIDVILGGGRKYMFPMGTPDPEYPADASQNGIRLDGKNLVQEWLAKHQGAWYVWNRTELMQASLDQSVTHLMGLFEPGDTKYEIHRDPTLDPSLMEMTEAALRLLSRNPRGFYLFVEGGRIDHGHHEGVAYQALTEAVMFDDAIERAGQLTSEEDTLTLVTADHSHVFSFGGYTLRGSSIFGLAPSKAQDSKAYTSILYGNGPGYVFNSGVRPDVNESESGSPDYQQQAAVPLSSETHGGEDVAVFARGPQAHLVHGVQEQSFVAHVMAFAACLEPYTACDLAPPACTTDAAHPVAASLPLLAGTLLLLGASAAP
T2 sequence (Q00975 whole entry): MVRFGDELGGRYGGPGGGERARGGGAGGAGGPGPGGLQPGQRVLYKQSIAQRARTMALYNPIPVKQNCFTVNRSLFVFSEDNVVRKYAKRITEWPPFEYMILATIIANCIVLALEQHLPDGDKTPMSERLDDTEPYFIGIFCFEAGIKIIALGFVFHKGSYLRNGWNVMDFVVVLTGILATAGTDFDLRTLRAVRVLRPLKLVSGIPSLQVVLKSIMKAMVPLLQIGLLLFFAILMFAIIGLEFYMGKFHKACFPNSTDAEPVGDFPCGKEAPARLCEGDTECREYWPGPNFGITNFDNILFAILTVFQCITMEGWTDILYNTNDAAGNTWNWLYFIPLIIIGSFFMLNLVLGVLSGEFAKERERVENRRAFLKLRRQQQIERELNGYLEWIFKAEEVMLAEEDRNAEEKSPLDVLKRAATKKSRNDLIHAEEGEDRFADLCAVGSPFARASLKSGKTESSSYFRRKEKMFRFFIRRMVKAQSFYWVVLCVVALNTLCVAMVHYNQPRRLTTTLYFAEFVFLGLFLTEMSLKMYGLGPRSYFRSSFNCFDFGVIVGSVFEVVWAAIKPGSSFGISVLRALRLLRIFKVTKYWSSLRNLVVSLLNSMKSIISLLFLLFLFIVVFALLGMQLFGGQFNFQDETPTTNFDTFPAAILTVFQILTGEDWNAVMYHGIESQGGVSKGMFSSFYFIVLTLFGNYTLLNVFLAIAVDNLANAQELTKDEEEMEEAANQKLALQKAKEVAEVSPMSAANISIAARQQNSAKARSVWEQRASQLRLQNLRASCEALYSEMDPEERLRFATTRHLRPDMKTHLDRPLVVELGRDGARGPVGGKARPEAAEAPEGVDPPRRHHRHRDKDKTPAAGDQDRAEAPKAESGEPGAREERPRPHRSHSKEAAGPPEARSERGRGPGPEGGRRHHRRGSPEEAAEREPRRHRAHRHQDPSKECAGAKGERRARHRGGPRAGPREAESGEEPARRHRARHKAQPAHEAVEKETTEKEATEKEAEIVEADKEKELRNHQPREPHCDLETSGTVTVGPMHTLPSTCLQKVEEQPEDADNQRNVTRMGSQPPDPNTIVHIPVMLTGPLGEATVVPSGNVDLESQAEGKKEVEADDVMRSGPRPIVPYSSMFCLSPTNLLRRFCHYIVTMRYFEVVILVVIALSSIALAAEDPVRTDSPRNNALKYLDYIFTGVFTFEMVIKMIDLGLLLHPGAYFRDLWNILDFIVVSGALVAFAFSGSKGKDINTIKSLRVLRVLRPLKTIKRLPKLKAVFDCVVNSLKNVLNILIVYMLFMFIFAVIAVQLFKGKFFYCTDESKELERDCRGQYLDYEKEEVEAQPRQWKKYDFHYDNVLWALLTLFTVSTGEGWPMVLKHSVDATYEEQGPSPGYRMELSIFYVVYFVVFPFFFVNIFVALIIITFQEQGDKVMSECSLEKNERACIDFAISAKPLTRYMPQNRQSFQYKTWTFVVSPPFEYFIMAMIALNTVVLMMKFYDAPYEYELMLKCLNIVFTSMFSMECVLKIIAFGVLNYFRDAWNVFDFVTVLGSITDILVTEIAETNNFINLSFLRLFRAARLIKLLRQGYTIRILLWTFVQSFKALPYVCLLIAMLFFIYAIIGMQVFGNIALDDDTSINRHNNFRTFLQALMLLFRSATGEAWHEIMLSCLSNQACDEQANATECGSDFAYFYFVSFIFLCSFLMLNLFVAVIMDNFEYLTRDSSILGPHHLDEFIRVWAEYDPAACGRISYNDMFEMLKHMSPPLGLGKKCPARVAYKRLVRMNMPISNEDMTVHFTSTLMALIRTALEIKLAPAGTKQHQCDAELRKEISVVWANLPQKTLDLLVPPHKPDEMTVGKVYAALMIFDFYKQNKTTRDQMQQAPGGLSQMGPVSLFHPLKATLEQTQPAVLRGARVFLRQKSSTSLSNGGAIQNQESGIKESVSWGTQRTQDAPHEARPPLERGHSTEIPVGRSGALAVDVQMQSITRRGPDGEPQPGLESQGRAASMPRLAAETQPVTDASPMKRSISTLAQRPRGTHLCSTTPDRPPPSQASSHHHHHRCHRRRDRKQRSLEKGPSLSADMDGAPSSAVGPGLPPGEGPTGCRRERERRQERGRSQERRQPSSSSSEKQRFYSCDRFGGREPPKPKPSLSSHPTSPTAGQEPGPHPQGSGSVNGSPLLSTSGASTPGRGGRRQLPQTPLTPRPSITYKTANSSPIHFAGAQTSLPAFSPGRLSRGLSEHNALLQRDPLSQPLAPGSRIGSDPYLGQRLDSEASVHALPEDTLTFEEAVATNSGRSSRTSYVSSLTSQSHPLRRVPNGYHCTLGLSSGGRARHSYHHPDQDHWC
T2 sequence (Q02410 whole entry): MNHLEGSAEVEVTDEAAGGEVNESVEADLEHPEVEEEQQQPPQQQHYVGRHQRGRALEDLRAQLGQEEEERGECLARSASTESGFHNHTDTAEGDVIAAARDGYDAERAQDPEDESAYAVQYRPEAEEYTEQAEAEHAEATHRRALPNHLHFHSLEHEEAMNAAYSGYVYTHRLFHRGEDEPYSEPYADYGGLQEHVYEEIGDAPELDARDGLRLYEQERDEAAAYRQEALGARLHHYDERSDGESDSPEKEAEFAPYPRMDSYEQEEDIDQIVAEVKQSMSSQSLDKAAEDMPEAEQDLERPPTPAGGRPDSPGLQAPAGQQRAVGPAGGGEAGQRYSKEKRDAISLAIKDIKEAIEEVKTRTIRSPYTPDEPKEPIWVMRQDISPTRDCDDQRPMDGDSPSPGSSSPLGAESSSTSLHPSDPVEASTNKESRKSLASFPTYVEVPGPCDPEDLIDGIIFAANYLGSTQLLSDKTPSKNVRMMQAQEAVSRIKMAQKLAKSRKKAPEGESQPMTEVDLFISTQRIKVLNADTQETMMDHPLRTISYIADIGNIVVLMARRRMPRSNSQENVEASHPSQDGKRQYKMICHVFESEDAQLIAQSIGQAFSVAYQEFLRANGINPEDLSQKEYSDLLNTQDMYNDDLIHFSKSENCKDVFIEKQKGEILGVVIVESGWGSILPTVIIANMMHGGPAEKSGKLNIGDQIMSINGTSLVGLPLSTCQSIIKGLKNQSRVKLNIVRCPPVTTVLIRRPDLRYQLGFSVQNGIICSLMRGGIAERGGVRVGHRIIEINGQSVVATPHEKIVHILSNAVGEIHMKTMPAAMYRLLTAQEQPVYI

O=C(NCCCO)Nc1ccc2nc(-c3ccco3)c(-c3ccco3)nc2c1
IC50 [1]: 841 nM (active) and 537 nM (active) | IC50 [2]: 0.507 µM (active) | IC50 [3]: > 100 µM (active) | IC50 [4]: 20 µM (active) | IC50 [5]: 9.25 µM (active)

CCOc1ccc(-n2c(SCC(=O)O)nc3sc4c(c3c2=O)CCCC4)cc1
EC50 [6]: 5.96 µM (active)

CN(Cc1ccccc1)C(=O)C1CCCN(Cc2cccc(Cl)c2)C1 (stereo unspecified)
EC50 [7]: 0.231 µM (active) | EC50 [8]: > 195 µM (not active) | AC50 [9]: 70.3 µM (active) | AC50 (Trypanosoma cruzi): 0.57 µM (active)

COc1cccc(-n2sc3ccccc3c2=O)c1
IC50 (Hexokinase): 2.52 µM (active) | IC50 (Phosphomannomutase 2): 14.3 µM (active) | IC50 [10]: 4.19 µM (active)

CCN(CCNC(=O)c1ccc(CNS(=O)(=O)c2ccc(C)cc2)cc1)Cc1ccccc1
IC50 [11]: 2.93 µM (active) | IC50 (Mu-type opioid receptor): 10.3 µM (inactive) | IC50 [12]: > 32 µM (inactive) | IC50 [13]: 5.57 µM (active)

COc1cccc(/C=N\NC(=O)C2=NNC(=O)C2C)c1O (stereo unspecified)
EC50 [14]: 9.07 µM (active) | EC50 [15]: > 38 µM (not active) | IC50 (SUMO-activating enzyme [16]): 18.3 µM (active) | EC50 [17]: > 100 µM (inactive) | EC50 [18]: 6.53 µM (active) | IC50 (SUMO-activating enzyme [19]): 5.18 µM (active) | EC50 [20]: 8.88 µM (active) | EC50 [21]: > 160 µM (inconclusive)

CC(NCCC(c1ccccc1)c1ccccc1)c1ccccc1 (stereo unspecified) [FENDILINE HYDROCHLORIDE]
IC50 [22]: 3.1 µM (active)
